Like-named read-outs stand apart in the source and are kept apart here.
Key:
[1] = Stability on incubation with mouse liver microsomes (MLM); assay type: in vitro ADME; conditions: percentage left after incubation with mouse liver microsomes for 30 minutes
Description: (§1) Stability of hydroxyquinoline analogs were determined (see e.g., TABLE 18). MLM represents the percentage left after incubation with mouse liver microsomes for 30 minutes. HLM represents the percentage left after incubation with human liver microsomes for 30 minutes.
(§2) Stability of analogs having a benzaldehyde derived ring were determined (see e.g., TABLE 18). MLM represents the percentage left after incubation with mouse liver microsomes for 30 minutes. HLM represents the percentage left after incubation with human liver microsomes for 30 minutes.

[2] = Stability on incubation with human liver microsomes (HLM); assay type: in vitro ADME; conditions: percentage left after incubation with human liver microsomes for 30 minutes
Description: as §1, §2

MDBK line = assay: MTT Cell Proliferation Assay, MDBK line; assay type: cell-based, bovine; conditions: Bos taurus, MDBK
How it was run: (§3)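 Cells plated overnight, then exposed 3 days at 37 °C, 5% CO2 to compound in growth medium with 0.5% FBS and 0.5% DMSO final (0.5% DMSO as control).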

[3] = tested on: epithelial carcinoma A431 cell line; assay: MTT Cell Proliferation Assay, A431 cell line; assay type: cell-based; conditions: for MTT-72 h A431/MDBK (ratio) / MTT (10 Point follow-up) ratio: value in brackets; for MTT-72 h A431/MDBK (ratio): numerically MDBK value over A431 value; for MTT (10 Point follow-up) ratio: numerically MDBK over A431; for MTT-72 h % Max: maximal effect printed after the ratio
How it was run: as §3

EGFR = target: T1, EGFR (Homo sapiens, UniProt P00533); assay: EGFR in-cell Western (ICW) screening protocol; assay type: cell-based; parameters: unit not given here; conditions: for ICW Screen: initial screen
T1 construct: endogenous in cells; host or cells: A431 cells (ATCC CRL-1555)
T1 sequence (P00533 25-1210): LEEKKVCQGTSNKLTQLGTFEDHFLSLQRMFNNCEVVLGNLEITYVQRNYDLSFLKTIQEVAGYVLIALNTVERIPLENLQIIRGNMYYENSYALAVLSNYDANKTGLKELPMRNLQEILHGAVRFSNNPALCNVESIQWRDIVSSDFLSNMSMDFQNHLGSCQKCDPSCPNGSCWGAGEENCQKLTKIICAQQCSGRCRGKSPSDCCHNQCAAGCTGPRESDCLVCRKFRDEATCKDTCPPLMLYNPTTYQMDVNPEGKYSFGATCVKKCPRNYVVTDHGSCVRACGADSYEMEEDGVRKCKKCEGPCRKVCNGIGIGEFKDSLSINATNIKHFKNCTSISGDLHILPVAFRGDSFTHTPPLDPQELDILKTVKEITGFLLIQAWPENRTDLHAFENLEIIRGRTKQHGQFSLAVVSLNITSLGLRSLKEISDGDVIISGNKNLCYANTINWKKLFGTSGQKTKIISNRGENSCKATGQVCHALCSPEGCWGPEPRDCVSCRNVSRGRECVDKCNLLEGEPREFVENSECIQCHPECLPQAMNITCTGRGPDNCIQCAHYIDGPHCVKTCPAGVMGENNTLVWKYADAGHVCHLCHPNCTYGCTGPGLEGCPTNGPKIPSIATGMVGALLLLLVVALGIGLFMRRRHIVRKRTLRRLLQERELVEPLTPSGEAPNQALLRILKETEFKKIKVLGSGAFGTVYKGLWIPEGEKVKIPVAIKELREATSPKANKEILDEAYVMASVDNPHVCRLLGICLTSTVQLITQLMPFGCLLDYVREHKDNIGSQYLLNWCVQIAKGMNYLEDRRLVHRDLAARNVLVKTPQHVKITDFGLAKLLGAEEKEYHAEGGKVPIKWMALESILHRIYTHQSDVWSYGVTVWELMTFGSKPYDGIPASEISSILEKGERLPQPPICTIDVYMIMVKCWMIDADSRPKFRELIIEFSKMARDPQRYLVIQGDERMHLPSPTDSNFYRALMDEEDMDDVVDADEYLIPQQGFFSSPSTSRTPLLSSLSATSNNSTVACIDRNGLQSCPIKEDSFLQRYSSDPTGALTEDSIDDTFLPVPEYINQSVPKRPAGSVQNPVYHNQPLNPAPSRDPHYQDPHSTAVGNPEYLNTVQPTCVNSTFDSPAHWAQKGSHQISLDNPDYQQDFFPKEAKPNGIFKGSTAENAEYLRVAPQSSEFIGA
How it was run: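 Serum-starved cells treated with compound 4 h at 37 °C, then stimulated with EGF (20 or 0 ng/ml solution added) in its continued presence. In-cell Western on fixed cells: phospho-EGFR (800 channel) normalised to total EGFR (700 channel), % inhibition calculated against EGF-stimulated and unstimulated no-compound wells.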

[4] = 72 h, second value of A431/MDBK pair, read-out: MTT-72 h MDBK
[5] = Homo sapiens, A-431, 72 h, 72 h, first value of A431/MDBK pair, read-out: MTT-72 h A431
[6] = 10 point follow-up, second value of pair, read-out: MTT (10 Point follow-up) MDBK
[7] = Homo sapiens, A-431, 10 point follow-up, first value of pair, read-out: MTT (10 Point follow-up) A431

| Structure (SMILES) | MLM % Remaining@ 30 Min [1] [%] | HLM % Remaining@ 30 Min [2] [%] | IC50 [3, 5] [µM] | ICW Screen (EGFR) | ICW Re-Test (EGFR) | IC50 [3, 7] [µM] | IC50 ([3]; 72 h, first value of A431/MDBK pair, read-out: MTT-72 h A431) [µM] | IC50 (MDBK line; [4]) [µM] | MTT-72 h A431/MDBK (ratio) ([3]; 72 h) | IC50 (MDBK line; [6]) [µM] | MTT (10 Point follow-up) ratio [3] | MTT-72 h % Max ([3]; 72 h) [%] |
| --- | --- | --- | --- | --- | --- | --- | --- | --- | --- | --- | --- | --- |
| Cc1cccc(NC(c2cccc(Cl)c2Cl)c2ccc3cccnc3c2O)n1 (stereo not shown) [AD4-12905] | 23 | 63 | – | – | – | – | – | – | – | – | – | – |
| CCOc1cc(C(NC(C)=O)c2cc([N+](=O)[O-])c3cccnc3c2O)ccc1O (stereo not shown) [compound 10951] | – | – | 5.58 | 38.95 | 31.33 | – | – | 5.44 | 0.97 | – | – | – |
| CCOc1ccc(C(Nc2ccccn2)c2cc(Cl)c3cccnc3c2O)cc1 (stereo not shown) [compound 10953] | – | – | 5.42 | 30.86 | 41.04 | – | – | 5.56 | 1.03 | – | – | – |
| Oc1c(C(Nc2ccccn2)c2ccccn2)cc(Cl)c2cccnc12 (stereo not shown) [compound 10954] | – | – | 1.72 | 31.09 | – | 1.62 | – | 2.29 | 1.33 | 2.17 | 1.26 | – |
| CCC(=O)NC(c1cccs1)c1cc([N+](=O)[O-])c2cccnc2c1O (stereo not shown) [compound 10960] | – | – | 0.67 | 32.5 | 91.3 | 0.648 | – | 1.02 | 1.52 | 0.967 | 1.49 | – |
| COc1ccc(C(NC(=O)c2cccnc2)c2cc(Cl)c3cccnc3c2O)cc1OC (stereo not shown) [compound 10969] | – | – | – | 30.17 | 73.15 | 0.51 | – | – | – | 0.52 | 1.02 | – |
| Cc1cccc(NC(c2cccnc2)c2ccc3cccnc3c2O)n1 (stereo not shown) [compound 10975] | – | – | 52.2 | 53.5 | 34.86 | – | – | 35.6 | 0.68 | – | – | – |
| Cc1cccc(NC(c2cccc(C)n2)c2ccc3ccc(C)nc3c2O)n1 (stereo not shown) [compound 10976] | – | – | 25.1 | 33.22 | 21.78 | – | – | 19.7 | 0.78 | – | – | – |
| CCOc1ccc(NC(c2ccccn2)c2ccc3cccnc3c2O)cc1 (stereo not shown) [compound 11000] | – | – | – | 27.62 | – | – | 11.4 | 11.2 | 0.99 | – | – | – |
| COc1ccc(C)cc1NC(c1ccc(F)cc1)c1ccc2cccnc2c1O (stereo not shown) [compound 11014] | – | – | 4.68 | 47.81 | 32.53 | – | – | 4.32 | 0.92 | – | – | – |
| O=[N+]([O-])c1cccc(NC(c2ccco2)c2ccc3cccnc3c2O)c1 (stereo not shown) [compound 11056] | – | – | 6.35 | 32.48 | 18.32 | – | – | 5.94 | 0.94 | – | – | – |
| Oc1c(C(Nc2cccc(Cl)c2)c2cccnc2)ccc2cccnc12 (stereo not shown) [compound 11057] | – | – | 7.99 | 44.4 | 73.29 | – | – | 7.86 | 0.98 | – | – | – |
| Oc1c(C(Nc2ccc(OC(F)F)cc2)c2ccccn2)ccc2cccnc12 (stereo not shown) [compound 11072] | – | – | 43.2 | 44.06 | 36.82 | – | – | 21.1 | 0.49 | – | – | 12 |
| COc1ccccc1NC(c1cccnc1)c1ccc2cccnc2c1O (stereo not shown) [compound 11102] | – | – | 7.39 | 44.31 | 39.06 | – | – | 7.66 | 1.04 | – | – | – |
| Oc1c(C(Nc2cccc(F)c2)c2ccccn2)ccc2cccnc12 (stereo not shown) [compound 11105] | – | – | 5.46 | 48.25 | 17.88 | 4.72 | – | 7.03 | 1.29 | 6.5 | 1.38 | – |
| Oc1ccccc1NC(c1cccnc1)c1ccc2cccnc2c1O (stereo not shown) [compound 11151] | – | – | 8.25 | 35.56 | 45.66 | – | – | 6.23 | 0.76 | – | – | – |
| COc1ccc(NC(c2cccnc2)c2ccc3cccnc3c2O)cc1 (stereo not shown) [compound 11152] | – | – | 9 | 60.41 | 48.96 | – | – | 8.24 | 0.92 | – | – | – |
| Oc1c(C(Nc2ccc(F)cc2)c2ccncc2)ccc2cccnc12 (stereo not shown) [compound 11153] | – | – | 13.1 | 28.24 | 20.64 | – | – | 5.58 | 0.43 | – | – | – |
| Fc1cccc(C(Nc2ccccn2)c2ccc3cccnc3c2)c1 (stereo not shown) [compound 11191] | – | – | 5.59 | 40.32 | 22.02 | – | – | 5.53 | 0.99 | – | – | – |

More lines, main results first:

| MLM % Remaining@ 30 Min [1] [%] | HLM % Remaining@ 30 Min [2] [%] | IC50 [3, 5] [µM] | ICW Screen (EGFR) | ICW Re-Test (EGFR) | IC50 [3, 7] [µM] | IC50 ([3]; 72 h, first value of A431/MDBK pair, read-out: MTT-72 h A431) [µM] | Structure (SMILES) | IC50 (MDBK line; [4]) [µM] | MTT-72 h A431/MDBK (ratio) ([3]; 72 h) | IC50 (MDBK line; [6]) [µM] | MTT (10 Point follow-up) ratio [3] | MTT-72 h % Max ([3]; 72 h) [%] |
| --- | --- | --- | --- | --- | --- | --- | --- | --- | --- | --- | --- | --- |
| 17 | 72 | – | – | – | – | – | Cc1cccc(NC(c2ccc(OC(F)(F)F)cc2)c2ccc3cccnc3c2O)n1 (stereo not shown) [AD4-12902] | – | – | – | – | – |
| 18 | 46 | – | – | – | – | – | Cc1cccc(NC(c2cccc(C(F)(F)F)c2)c2ccc3cccnc3c2O)n1 (stereo not shown) [AD4-12903] | – | – | – | – | – |
| – | – | 10.5 | 49.39 | 43.94 | – | – | Cc1cccc(NC(c2ccc(C)s2)c2ccc3ccc(C)nc3c2O)n1 (stereo not shown) [compound 10952] | 7.77 | 0.74 | – | – | – |
| – | – | 5.5 | 37.33 | 53.58 | – | – | Oc1c(C(Nc2ccccn2)c2cccnc2)cc(Cl)c2cccnc12 (stereo not shown) [compound 10955] | 5.36 | 0.97 | – | – | – |
| – | – | 17.5 | 49.8 | 39.03 | – | – | Oc1c(C(Nc2ccccn2)c2ccsc2)ccc2cccnc12 (stereo not shown) [compound 10957] | 14.1 | 0.80 | – | – | – |
| – | – | 14.8 | 60.73 | 70.92 | – | – | Cc1ccc2ccc(C(Nc3ccccn3)c3sccc3C)c(O)c2n1 (stereo not shown) [compound 10958] | 9.67 | 0.65 | – | – | – |
| – | – | 0.98 | 42.18 | 87.34 | 0.96 | – | CCCC(=O)NC(c1ccc(O)c(OCC)c1)c1cc([N+](=O)[O-])c2cccnc2c1O (stereo not shown) [compound 10959] | 2.43 | 2.47 | 2.07 | 2.16 | – |
| – | – | 32.4 | 94.69 | 71.58 | – | – | Cc1ccc2ccc(C(Nc3ccccn3)c3ccc(C)s3)c(O)c2n1 (stereo not shown) [compound 10961] | 43.5 | 1.34 | – | – | 50 |
| – | – | 3.83 | 74.54 | 92.26 | – | – | CCN(CC)c1ccc(C(Nc2ccccn2)c2ccc3cccnc3c2O)cc1 (stereo not shown) [compound 10965] | 3.83 | 1.00 | – | – | – |
| – | – | 46 | 25.98 | 15.92 | – | – | Cc1ccc2ccc(C(Nc3ccccn3)c3cccnc3)c(O)c2n1 (stereo not shown) [compound 10967] | 31 | 0.67 | – | – | – |
| – | – | 11.1 | 27 | – | – | – | Cc1ccnc(NC(c2ccncc2)c2ccc3cccnc3c2O)c1 (stereo not shown) [compound 10968] | 7.84 | 0.71 | – | – | – |
| – | – | 4.19 | 50.44 | 44.13 | – | – | Cc1cccc(NC(c2ccncc2)c2ccc3cccnc3c2O)n1 (stereo not shown) [compound 10974] | 4.77 | 1.14 | – | – | – |
| – | – | 5.07 | 64.21 | 57.97 | – | – | COC(=O)c1ccc(NC(c2cccs2)c2ccc3cccnc3c2O)cc1 (stereo not shown) [compound 11015] | 3.87 | 0.76 | – | – | – |
| – | – | 11.6 | 25.07 | – | – | – | CC(=O)Nc1ccc(NC(c2ccccn2)c2ccc3cccnc3c2O)cc1 (stereo not shown) [compound 11017] | 9.66 | 0.83 | – | – | – |
| – | – | 9.11 | 25.31 | 21.62 | – | – | Oc1c(C(Nc2ccccc2)c2ccccn2)ccc2cccnc12 (stereo not shown) [compound 11018] | 8.1 | 0.89 | – | – | – |
| – | – | 3.93 | 53.72 | 71.32 | – | – | Oc1c(C(Nc2cccc(Cl)c2)c2ccncc2)ccc2cccnc12 (stereo not shown) [compound 11042] | 3.72 | 1.06 | – | – | – |
| – | – | 20.8 | 50.55 | 45.86 | – | – | COc1ccc(NC(c2ccccn2)c2ccc3cccnc3c2O)cc1 (stereo not shown) [compound 11103] | 36.4 | 1.75 | – | – | – |

Source: patent publication US9073858B2, “Methods of targeted drug development” (priority 2010, dated 2015)
